Results as given in patent US8791123B2, “Substituted pyrazolo[1,5-a]pyrimidine compounds as Trk kinase inhibitors” (Array Biopharma, Inc., priority 2009, dated 2014).
Where a name gives a salt, the structure may show the parent alone. Read-outs that look alike come from different tables or passages of the source.

Assays:
Human Jak2 kinase domain = Human Jak2 kinase domain (Homo sapiens (Human), UniProt O60674); assay: Jak2 Inhibition Assay (Omnia kinase assay); format: biochemical; settings: read-out: Jak2 Enzyme IC50
Chain of Human Jak2 kinase domain (O60674 808-1132): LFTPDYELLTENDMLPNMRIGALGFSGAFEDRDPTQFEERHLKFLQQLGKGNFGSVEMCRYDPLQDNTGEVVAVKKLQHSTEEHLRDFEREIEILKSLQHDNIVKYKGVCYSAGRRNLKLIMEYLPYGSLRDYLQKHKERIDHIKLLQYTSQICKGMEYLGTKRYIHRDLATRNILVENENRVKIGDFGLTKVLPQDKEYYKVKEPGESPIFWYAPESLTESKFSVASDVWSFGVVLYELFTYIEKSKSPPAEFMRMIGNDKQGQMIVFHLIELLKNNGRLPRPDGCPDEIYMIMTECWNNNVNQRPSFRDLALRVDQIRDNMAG
Experimental: The assays described in Examples C, D, E and F for the determination of JAK1, JAK2, JAK3 and Tyk2 kinase activity, respectively, utilized the Omnia® Kinase fluorescence peptide substrate-based technology (Invitrogen). […] The reactions were therefore read at excitation 360 nm and emission was measured at 485 nm every 50 seconds for 45 minutes using a PerkinElmer EnVision Multilabel Plate Reader.
The final buffer conditions for each of the JAK1, JAK2, JAK3 and Tyk2 assays were as follows: 25 mM HEPES, pH 7.4, 10 mM MgCl2, 0.01% Triton X-100 and 1 mM DTT.
Two-μL aliquots of these were transferred to a fresh plate for a ten-fold intermediate dilution with assay buffer. Five-μL aliquots of the diluted compounds were then transferred to 20-μL of assay mixtures described in Examples C, D, E and F for a final concentration of DMSO of 2%. […] For each plate, percent of control (POC) values were calculated for each well according to the following equation:
[formula] • where • Xmax=Average Uninhibited Controls • Xmin=Average Background IC50's were estimated from the POC's using a standard 4-parameter logistic model:
[formula] • where • A=Minimum Y (Bottom Asymptote) • B=Maximum Y (Top Asymptote) • C=EC50 • D=Slope Factor • X=Compound Concentration (nM) • Y=POC
The IC50 is defined as the concentration of inhibitor at which the POC equals 50 for the fitted curve.
Compounds of Formula I were screened for their ability to inhibit Jak2 using the general enzyme inhibition assay method, in which the assay mixture contained 500 μM ATP, 10 μM Omnia® Y7 peptide (Catalog # IVGN KNZ3071C, Invitrogen Corporation, Carlsbad, Calif.) and 4 nM Jak2 in a total volume of 20 μL. Human Jak2 kinase domain comprising amino acids 808-1132 was purchased from Invitrogen Corporation, Carlsbad, Calif. (catalog # IVGN PV4210).

[1] = molecular target: TrkA (histidine-tagged recombinant human TrkA, cytoplasmic domain) (Homo sapiens (Human), UniProt P04629); assay: TrkA ELISA Assay; format: biochemical; settings: Table 1; ELISA, 500 μM ATP; read-out: TrkA Enzyme IC50
Chain of TrkA (histidine-tagged recombinant human TrkA, cytoplasmic domain) (P04629 440-796): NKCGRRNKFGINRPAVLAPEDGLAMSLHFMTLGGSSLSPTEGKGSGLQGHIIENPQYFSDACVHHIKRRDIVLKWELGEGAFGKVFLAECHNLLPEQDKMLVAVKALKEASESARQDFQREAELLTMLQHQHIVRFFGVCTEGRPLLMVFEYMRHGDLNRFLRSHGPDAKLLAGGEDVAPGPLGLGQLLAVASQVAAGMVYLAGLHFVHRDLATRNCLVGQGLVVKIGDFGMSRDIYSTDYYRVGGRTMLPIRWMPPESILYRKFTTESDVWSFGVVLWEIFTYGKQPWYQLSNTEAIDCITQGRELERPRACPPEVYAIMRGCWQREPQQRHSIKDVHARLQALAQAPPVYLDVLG
Experimental: An enzyme-linked immunosorbant assay (ELISA) was used to assess TrkA kinase activity in the presence of inhibitors. Immulon 4HBX 384-well microtiter plates (Thermo part #8755) were coated with a 0.025 mg/mL solution of poly (Glu, Ala, Tyr; 6:3:1; Sigma P3899). […] The reaction mixture was removed from the plate by washing with PBS containing 0.1% (v/v) Tween 20. The phosphorylated reaction product was detected using 0.2 μg/mL of a phosphotyrosine specific monoclonal antibody (clone PY20) conjugated to horseradish peroxidase in conjunction with the TMB Peroxidase Substrate System (KPL). After the addition of 1M phosphoric acid, the chromogenic substrate color intensity was quantitated via absorbance at 450 nm.

[2] = Table 1, 500 μM ATP, >1000 nM when >50% inhibition not observed at 1000 nM

Row | Compound | IC50 (Human Jak2 kinase domain; [2]) [nM] | IC50 [1] [nM] | IC50 (Human Jak2 kinase domain) [nM]
1 | O=C(NC1CCOCC1)c1cnn2ccc(N3CCC[C@@H]3c3cc(F)ccc3F)nc12 [Example 20, (R)-5-(2-(2,5-difluorophenyl)pyrrolidin-1-yl)-N-(tetrahydro-2H-pyran-4-yl)pyrazolo[1,5-a]pyrimidine-3-carboxamide] | 257 | 0.6 | –
2 | Cn1cnc(CNC(=O)c2cnn3ccc(N4CCC[C@@H]4c4cc(F)ccc4F)nc23)c1 [Example 21, (R)-5-(2-(2,5-difluorophenyl)pyrrolidin-1-yl)-N-((1-methyl-1H-imidazol-4-yl)methyl)pyrazole[1,5-a]pyrimidine-3-carboxamide] | > 1000 | 2.95 | –
3 | Cn1cc(CNC(=O)c2cnn3ccc(N4CCC[C@@H]4c4cc(F)ccc4F)nc23)cn1 [Example 22, (R)-5-(2-(2,5-difluorophenyl)pyrrolidin-1-yl)-N-((1-methyl-1H-pyrazol-4-yl)methyl)pyrazolo[1,5-a]pyrimidine-3-carboxamide] | > 1000 | 2.1 | –
4 | O=C(NCCN1CCNC1=O)c1cnn2ccc(N3CCC[C@@H]3c3cc(F)ccc3F)nc12 [Example 24, (R)-5-(2-(2,5-difluorophenyl)pyrrolidin-1-yl)-N-(2-(2-oxoimidazolidin-1-yl)ethyl) pyrazole[1,5-a]pyrimidine-3-carboxamide] | > 1000 | 3.6 | –
5 | O=C(NCCc1c[nH]cn1)c1cnn2ccc(N3CCC[C@@H]3c3cc(F)ccc3F)nc12 [Example 25, (R)—N-(2-(1H-imidazol-4-yl)ethyl)-5-(2-(2,5-difluorophenyl)pyrrolidin-1-yl)pyrazolo[1,5-a]pyrimidine-3-carboxamide] | > 1000 | 0.4 | –
6 | O=C(NC[C@@H](O)CO)c1cnn2ccc(N3CCC[C@@H]3c3cc(F)ccc3F)nc12 [Example 26, 5-((R)-2-(2,5-difluorophenyl)pyrrolidin-1-yl)-N—((R)-2,3-dihydroxypropyl)pyrazolo[1,5-a]pyrimidine-3-carboxamide] | > 1000 | 1.3 | –
7 | CN(C)C(=O)c1cnn2ccc(N3CCC[C@@H]3c3cc(F)ccc3F)nc12 [Example 27, (R)-5-(2-(2,5-difluorophenyl)pyrrolidin-1-yl)-N,N-dimethylpyrazolo[1,5-a]pyrimidine-3-carboxamide] | > 1000 | 214 | –
8 | O=C(NCCn1ccnc1)c1cnn2ccc(N3CCC[C@@H]3c3cc(F)ccc3F)nc12 [Example 28, (R)—N-(2-(1H-imidazol-1-yl)ethyl)-5-(2-(2,5-difluorophenyl)pyrrolidin-1-yl)pyrazolo[1,5-a]pyrimidine-3-carboxamide] | > 1000 | 2.8 | –
9 | O=C(NC[C@H](O)CO)c1cnn2ccc(N3CCC[C@@H]3c3cc(F)ccc3F)nc12 [Example 29, 5-((R)-2-(2,5-difluorophenyl)pyrrolidin-1-yl)-N—((S)-2,3-dihydroxypropyl)pyrazolo[1,5-a]pyrimidine-3-carboxamide] | > 1000 | 1.3 | –
10 | CC1(O)CN(C(=O)c2cnn3ccc(N4CCC[C@@H]4c4cc(F)ccc4F)nc23)C1 [Example 32, (R)-(5-(2-(2,5-difluorophenyl)pyrrolidin-1-yl)pyrazolo[1,5-a]pyrimidin-3-yl)(3-hydroxy-3-methylazetidin-1-yl)methanone] | > 1000 | 5.3 | –
11 | O=C(N[C@H]1CC[C@H](O)CC1)c1cnn2ccc(N3CCC[C@@H]3c3cccc(F)c3)nc12 [Example 35, 5-((R)-2-(3-fluorophenyl)pyrrolidin-1-yl)-N-((trans)-4-hydroxycyclohexyl)pyrazolo[1,5-a]pyrimidine-3-carboxamide] | 278 | 1.2 | –
12 | CC(C)(C)NC(=O)c1cnn2ccc(N3CCC[C@@H]3c3cccc(F)c3)nc12 [Example 36, (R)—N-tert-butyl-5-(2-(3-fluorophenyl)pyrrolidin-1-yl)pyrazolo[1,5-a]pyrimidine-3-carboxamide] | > 1000 | 2.1 | –
13 | O=C(NC1CC1)c1cnn2ccc(N3CCC[C@@H]3c3cccc(F)c3)nc12 [Example 37, (R)—N-cyclopropyl-5-(2-(3-fluorophenyl)pyrrolidin-1-yl)pyrazolo[1,5-a]pyrimidine-3-carboxamide] | > 1000 | 1.65 | –
14 | CC(C)(C#N)NC(=O)c1cnn2ccc(N3CCC[C@@H]3c3cc(F)ccc3F)nc12 [Example 38, (R)—N-(2-cyanopropan-2-yl)-5-(2-(2,5-difluorophenyl)pyrrolidin-1-yl)pyrazolo[1,5-a]pyrimidine-3-carboxamide] | – | 1.3 | > 1000
15 | CC(C)(CF)NC(=O)c1cnn2ccc(N3CCC[C@@H]3c3cc(F)ccc3F)nc12 [Example 40, (R)-5-(2-(2,5-difluorophenyl)pyrrolidin-1-yl)-N-(1-fluoro-2-methylpropan-2-yl)pyrazolo[1,5-a]pyrimidine-3-carboxamide] | > 1000 | 0.8 | –
16 | CC(C)(C)NC(=O)c1cnn2ccc(N3C[C@H](O)C[C@@H]3c3cccc(F)c3)nc12 [Example 42, N-tert-butyl-5-((2R,4R)-2-(3-fluorophenyl)-4-hydroxypyrrolidin-1-yl)pyrazolo[1,5-a]pyrimidine-3-carboxamide] | > 1000 | 48.3 | –
17 | CNC(=O)c1cnn2ccc(N3C[C@H](O)C[C@@H]3c3cccc(F)c3)nc12 [Example 43, 5-((2R,4R)-2-(3-fluorophenyl)-4-hydroxypyrrolidin-1-yl)-N-methylpyrazolo[1,5-a]pyrimidine-3-carboxamide] | > 1000 | 139 | –
18 | NS(=O)(=O)CCNC(=O)c1cnn2ccc(N3CCC[C@@H]3c3cc(F)ccc3F)nc12 [Example 47, (R)-5-(2-(2,5-difluorophenyl)pyrrolidin-1-yl)-N-(2-sulfamoylethyl)pyrazolo[1,5-a]pyrimidine-3-carboxamide] | – | 1.5 | > 1000
19 | COc1ccc(F)cc1[C@H]1CCCN1c1ccn2ncc(C(=O)NC3CC3)c2n1 [Example 48, (R)—N-cyclopropyl-5-(2-(5-fluoro-2-methoxyphenyl)pyrrolidin-1-yl)pyrazolo[1,5-a]pyrimidine-3-carboxamide] | – | 0.6 | 429
20 | CC(C)(C)NC(=O)c1cnn2ccc(N3CCC[C@@H]3c3cncc(F)c3)nc12 [Example 53, (R)—N-tert-butyl-5-(2-(5-fluoropyridin-3-yl)pyrrolidin-1-yl)pyrazolo[1,5-a]pyrimidine-3-carboxamide] | > 1000 | 10.4 | –
21 | COc1ccc(F)cc1[C@H]1CCCN1c1ccn2ncc(C(=O)NCCN3CCOCC3)c2n1 [Example 54, (R)-5-(2-(5-fluoro-2-methoxyphenyl)pyrrolidin-1-yl)-N-(2-morpholinoethyl)pyrazolo[1,5-a]pyrimidine-3-carboxamide] | – | 2.25 | > 1000
22 | COc1ccc(F)cc1[C@H]1CCCN1c1ccn2ncc(C(=O)NC[C@H](O)CO)c2n1 [Example 55, N—((S)-2,3-dihydroxypropyl)-5-((R)-2-(5-fluoro-2-methoxyphenyl)pyrrolidin-1-yl)pyrazolo[1,5-a]pyrimidine-3-carboxamide] | – | 1 | > 1000
23 | COc1ccc(F)cc1[C@H]1CCCN1c1ccn2ncc(C(=O)NC[C@@H](O)CO)c2n1 [Example 56, N—((R)-2,3-dihydroxypropyl)-5-((R)-2-(5-fluoro-2-methoxyphenyl)pyrrolidin-1-yl)pyrazolo[1,5-a]pyrimidine-3-carboxamide] | – | 2.4 | > 1000
24 | CC(C)(N)CNC(=O)c1cnn2ccc(N3CCC[C@@H]3c3cc(F)ccc3F)nc12 [Example 58, (R)—N-(2-amino-2-methylpropyl)-5-(2-(2,5-difluorophenyl)pyrrolidin-1-yl)pyrazolo[1,5-a]pyrimidine-3-carboxamide] | > 1000 | 9.4 | –
25 | O=C(N[C@@H]1CCNC[C@@H]1F)c1cnn2ccc(N3CCC[C@@H]3c3cc(F)ccc3F)nc12 [Example 61, 5-((R)-2-(2,5-difluorophenyl)pyrrolidin-1-yl)-N-((3S,4R)-3-fluoropiperidin-4-yl)pyrazolo[1,5-a]pyrimidine-3-carboxamide hydrochloride] | – | 1.95 | 699
